Laboratory results from US20260241049A1, “Radiopharmaceutical Compositions Targeting Glypican-3 and Uses Thereof” (RayzeBio, Inc., priority 2023, published 2026).
Starred links: 1 amine or outer side, 2 acyl side, 3 side chain; linkers in the order of their positions; H or OH if unused. Positions of bridges follow the written chain, without caps; N, C: chain ends. Non-standard residues stand in square brackets, D forms with d. Residues, ends and D or L forms follow the SMILES beside them. Groups on a side chain read outwards from the residue. *: point of attachment. Phe(4-(1-Me-pyrazol-4-yl)) = Cn1cc(-c2ccc(C[C@H](N)C(=O)O)cc2)cn1; NMeAla(isoquinolin-7-yl) = CN[C@@H](Cc1ccc2ccncc2c1)C(=O)O; DOTA = O=C(O)CN1CCN(CC(=O)O)CCN(CC(=O)*)CCN(CC(=O)O)CC1; PEG12 = NCCOCCOCCOCCOCCOCCOCCOCCOCCOCCOCCOCCOCCC(=O)O; Phe(4-CH2COOH) = N[C@@H](Cc1ccc(CC(=O)O)cc1)C(=O)O; X2 = CN([C@@H](CC1CCN(CC(=O)O)CC1)C(=O)[*:2])[*:1]; 3Pal(6-Ph) = N[C@@H](Cc1ccc(-c2ccccc2)nc1)C(=O)O; Biotin = O=C1N[C@H]2[C@H](CS[C@H]2CCCCC(=O)*)N1; Phe(4-COOH) = N[C@@H](Cc1ccc(C(=O)O)cc1)C(=O)O; Piperazinyl(4-CH2COOH) = O=C(O)CN1CCN(*)CC1; NMe2Nal = CN[C@@H](Cc1ccc2ccccc2c1)C(=O)O; AEF = NCCOc1ccc(C[C@H](N)C(=O)O)cc1; NMeI = CC[C@H](C)[C@H](NC)C(=O)O; NMeQ = CN[C@@H](CCC(N)=O)C(=O)O; NMehSer = CN[C@@H](CCO)C(=O)O; NMeK = CN[C@@H](CCCCN)C(=O)O; NMeDap = CN[C@@H](CN)C(=O)O; NMeC = CN[C@@H](CS)C(=O)O; Carboxymethyl = O=C(O)C*; CO = O=C([*:1])[*:2]

target: Human Glypican3-Fc (Homo sapiens, UniProt P51654); test: SPR binding to Glypican-3, Method B-3 (Glypican3-Fc captured on Protein A chip, 5-point dilution series); settings: SPR method B-3
Procedure: A Protein A sensor chip (Cytiva) was inserted into a Biacore T200 (Cytiva), priming was performed three times with a running buffer: HBS-P+, pH 7.4 (Cytiva), and equilibration was carried out at a flow rate of 30 μL/min. Glypican3-Fc was allowed to react for 60 seconds at a flow rate of 10 μL/min. After capturing human Glypican3-Fe, a peptide solution prepared to 10 mM in DMSO solution was diluted with a running buffer to a final concentration of 10 μM. After that, 5 serial dilution series (100 nM, 50 nM, 25 nM, 10 nM, 5 nM) of peptide solutions were prepared. Using the above samples, peptide kinetics for Glypican3 was obtained by SPR measurement. Kinetics evaluation of Glypican3 was performed by SPR measurements at a flow rate of 10 LL/min, setting the association time to 120 seconds and the disassociation time to 600 seconds.
The obtained data by Method B-1, Method B-2, Method B-3 and Method B-4 were analyzed by follow. Single Cycle Kinetics was used as the kinetics evaluation model, and curve fitting was performed using Biacore T200 Evaluation Software Version 3.0 (Cytiva).

SMILES	Kd [nM]
CC[C@H](C)[C@@H]1NC(=O)[C@H]([C@@H](C)OC)NC(=O)[C@H](Cc2ccc(C(=O)O)cc2)NC(=O)[C@H](CNC(=O)N2CCN(CC(=O)O)CC2)N(C)C(=O)[C@H](CC(=O)O)NC(=O)[C@H](CCOC)N(C)C(=O)[C@H](CCCCNC(=O)N2CCN(CC(=O)O)CC2)N(C)C(=O)SCC[C@@H](C(N)=O)N(C)C(=O)[C@H](Cc2ccc(-c3ccccc3)nc2)NC(=O)CNC(=O)[C@H](Cc2ccc3ccncc3c2)N(C)C(=O)[C@H](Cc2ccc(OCCN)cc2)NC1=O [Conjugate 2-38]	1.8
CC[C@H](C)[C@@H]1NC(=O)[C@H]([C@@H](C)OC)NC(=O)[C@H](Cc2ccc(NCC(=O)O)nc2)NC(=O)[C@H](CNC(=O)N2CCN(CC(=O)O)CC2)N(C)C(=O)[C@H](CC(=O)O)NC(=O)[C@H](CCCCNC(=O)N2CCN(CC(=O)O)CC2)N(C)C(=O)[C@H](CCCCN)N(C)C(=O)CSC[C@@H](C(N)=O)N(C)C(=O)[C@H](Cc2ccc(-c3ccccc3)nc2)NC(=O)CNC(=O)[C@H](Cc2ccc3ccncc3c2)N(C)C(=O)[C@H](Cc2ccc(OCC(=O)O)cc2)NC1=O [Conjugate 2-30]	6.6
CC[C@H](C)[C@@H]1NC(=O)[C@H](Cc2ccc(C(=O)O)cc2)NC(=O)[C@H](CCC(N)=O)N(C)C(=O)[C@H](CC(=O)O)NC(=O)[C@H]([C@@H](C)CC)N(C)C(=O)[C@H](CCCCNC(=O)CCOCCOCCOCCOCCOCCOCCOCCOCCOCCOCCOCCOCCNC(=O)CCCC[C@@H]2SC[C@@H]3NC(=O)N[C@@H]32)N(C)C(=O)CSC[C@@H](C(N)=O)N(C)C(=O)[C@H](Cc2ccc(-c3ccccc3)nc2)NC(=O)CNC(=O)[C@H](Cc2ccc3ccncc3c2)N(C)C(=O)[C@H](Cc2ccc(OCC(=O)O)cc2)NC(=O)[C@H]([C@@H](C)CC)NC1=O [PLB-64] ({CH2CO}-[NMeK]([PEG12-Biotin])[NMeI]D[NMeQ][Phe(4-COOH)]IIY(Carboxymethyl)[NMeAla(isoquinolin-7-yl)]G[3Pal(6-Ph)][NMeC]-NH2; thioether N-12)	1.04
CC[C@H](C)[C@@H]1NC(=O)[C@H]([C@@H](C)OC)NC(=O)[C@H](Cc2ccc(C(=O)O)cc2)NC(=O)[C@H](CC2CCN(CC(=O)O)CC2)N(C)C(=O)[C@H](CC(=O)O)NC(=O)[C@H](CCC(N)=O)N(C)C(=O)[C@H](CCCCN)N(C)C(=O)CSC[C@@H](C(N)=O)N(C)C(=O)[C@H](Cc2ccc(-c3cnn(C)c3)cc2)NC(=O)CNC(=O)[C@H](Cc2ccc3ccccc3c2)N(C)C(=O)[C@H](Cc2ccc(CC(=O)O)cc2)NC1=O [Conjugate 2-51] ({CH2CO}-[NMeK][NMeQ]D[X2][Phe(4-COOH)]T(Me)I[Phe(4-CH2COOH)][NMe2Nal]G[Phe(4-(1-Me-pyrazol-4-yl))][NMeC]-NH2; thioether N-12)	2.5
CC[C@H](C)[C@@H]1NC(=O)[C@H]([C@@H](C)OC)NC(=O)[C@H](Cc2ccc(C(=O)O)cc2)NC(=O)[C@H](CCC(N)=O)N(C)C(=O)[C@H](CC(=O)O)NC(=O)[C@H]([C@@H](C)CC)N(C)C(=O)[C@H](CCCCN)N(C)C(=O)CSC[C@@H](C(N)=O)N(C)C(=O)[C@H](Cc2ccc(-c3ccccc3)nc2)NC(=O)CNC(=O)[C@H](Cc2ccc3ccncc3c2)N(C)C(=O)[C@H](Cc2ccc(O)cc2)NC1=O [Conjugate 2-60] ({CH2CO}-[NMeK][NMeI]D[NMeQ][Phe(4-COOH)]T(Me)IY[NMeAla(isoquinolin-7-yl)]G[3Pal(6-Ph)][NMeC]-NH2; thioether N-12)	0.23
CC[C@H](C)[C@@H]1NC(=O)[C@H]([C@@H](C)OC)NC(=O)[C@H](Cc2ccc(C(=O)O)cc2)NC(=O)[C@H](CCC(N)=O)N(C)C(=O)[C@H](CC(=O)O)NC(=O)[C@H](CCOC)N(C)C(=O)[C@H](CCCCNC(=O)N2CCN(CC(=O)O)CC2)N(C)C(=O)CSC[C@@H](C(N)=O)N(C)C(=O)[C@H](Cc2ccc(-c3ccccc3)nc2)NC(=O)CNC(=O)[C@H](Cc2ccc3ccncc3c2)N(C)C(=O)[C@H](Cc2ccc(O)cc2)NC1=O [Conjugate 2-24] ({CH2CO}-[NMeK]([CO-Piperazinyl(4-CH2COOH)])[NMehSer](Me)D[NMeQ][Phe(4-COOH)]T(Me)IY[NMeAla(isoquinolin-7-yl)]G[3Pal(6-Ph)][NMeC]-NH2; thioether N-12)	0.5
CC[C@H](C)[C@@H]1NC(=O)[C@H]([C@@H](C)OC)NC(=O)[C@H](Cc2ccc(C(=O)O)cc2)NC(=O)[C@H](CCC(N)=O)N(C)C(=O)[C@H](CC(=O)O)NC(=O)[C@H](CCOC)N(C)C(=O)[C@H](CCCCNC(=O)CN2CCN(CC(=O)O)CCN(CC(=O)O)CCN(CC(=O)O)CC2)N(C)C(=O)CSC[C@@H](C(N)=O)N(C)C(=O)[C@H](Cc2ccc(-c3ccccc3)nc2)NC(=O)CNC(=O)[C@H](Cc2ccc3ccncc3c2)N(C)C(=O)[C@H](Cc2ccc(OCC(=O)O)cc2)NC1=O [Lu-C-63] ({CH2CO}-[NMeK](DOTA)[NMehSer](Me)D[NMeQ][Phe(4-COOH)]T(Me)IY(Carboxymethyl)[NMeAla(isoquinolin-7-yl)]G[3Pal(6-Ph)][NMeC]-NH2; thioether N-12)	1.6
CC[C@H](C)[C@@H]1NC(=O)[C@H](Cc2ccc(C(=O)O)cc2)NC(=O)[C@H](CCC(N)=O)N(C)C(=O)[C@H](CC(=O)O)NC(=O)[C@H](CCOC)N(C)C(=O)[C@H](CCCCN)N(C)C(=O)CSC[C@@H](C(N)=O)N(C)C(=O)[C@H](Cc2ccc(-c3ccccc3)nc2)NC(=O)CNC(=O)[C@H](Cc2ccc3ccccc3c2)N(C)C(=O)[C@H](Cc2ccc(CC(=O)O)cc2)NC(=O)[C@H]([C@@H](C)CC)NC1=O [Conjugate 2-47] ({CH2CO}-[NMeK][NMehSer](Me)D[NMeQ][Phe(4-COOH)]II[Phe(4-CH2COOH)][NMe2Nal]G[3Pal(6-Ph)][NMeC]-NH2; thioether N-12)	0.2
CC[C@H](C)[C@@H]1NC(=O)[C@H]([C@@H](C)OC)NC(=O)[C@H](Cc2ccc(C(=O)O)cc2)NC(=O)[C@H](CNC(=O)N2CCN(CC(=O)O)CC2)N(C)C(=O)[C@H](CC(=O)O)NC(=O)[C@H](CCOC)N(C)C(=O)[C@H](CNC(=O)N2CCN(CC(=O)O)CC2)N(C)C(=O)CSC[C@@H](C(N)=O)N(C)C(=O)[C@H](Cc2ccc(-c3ccccc3)nc2)NC(=O)CNC(=O)[C@H](Cc2ccc3ccncc3c2)N(C)C(=O)[C@H](Cc2ccc(OCCN)cc2)NC1=O [Conjugate 2-37] ({CH2CO}-[NMeDap]([CO-Piperazinyl(4-CH2COOH)])[NMehSer](Me)D[NMeDap]([CO-Piperazinyl(4-CH2COOH)])[Phe(4-COOH)]T(Me)I[AEF][NMeAla(isoquinolin-7-yl)]G[3Pal(6-Ph)][NMeC]-NH2; thioether N-12 (inferred))	1
